Reference: ChEMBL document CHEMBL4699600, “Design, Synthesis, and Biological Evaluation of Covalent Inhibitors of Focal Adhesion Kinase (FAK) against Human Malignant Glioblastoma” (J Med Chem, 2020)
Calls of active or inactive are those of the source. No cut-off for these calls is given here.

Experiments:
[1] = molecular target: Platelet-derived growth factor receptor alpha (Homo sapiens) (UniProt P16234); experiment: Inhibition of human recombinant PDGFRA at 100 nM by [gamma-33ATP] radiometric assay relative to control
[2] = molecular target: T1, Serine/threonine-protein kinase AKT (Homo sapiens) (UniProt P31751+Q9Y243+P31749); experiment: Inhibition of human Akt at 100 nM in presence of [33P]-ATP by radiometric analysis relative to control; format: protein assay
T1 sequence (P31749 whole entry, looked up): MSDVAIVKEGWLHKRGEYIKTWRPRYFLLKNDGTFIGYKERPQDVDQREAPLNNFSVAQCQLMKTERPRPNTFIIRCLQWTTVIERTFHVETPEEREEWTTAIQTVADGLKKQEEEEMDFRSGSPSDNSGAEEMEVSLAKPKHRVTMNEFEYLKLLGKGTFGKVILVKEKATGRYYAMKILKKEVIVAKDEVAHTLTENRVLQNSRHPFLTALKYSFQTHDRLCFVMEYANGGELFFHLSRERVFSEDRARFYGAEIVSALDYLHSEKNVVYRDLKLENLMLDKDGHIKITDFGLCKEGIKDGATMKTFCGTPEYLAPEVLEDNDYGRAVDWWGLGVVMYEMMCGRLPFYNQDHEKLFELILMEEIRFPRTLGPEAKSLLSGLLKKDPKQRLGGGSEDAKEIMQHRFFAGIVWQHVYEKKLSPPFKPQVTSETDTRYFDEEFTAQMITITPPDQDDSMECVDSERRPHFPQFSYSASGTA
T1 sequence (P31751 whole entry, looked up): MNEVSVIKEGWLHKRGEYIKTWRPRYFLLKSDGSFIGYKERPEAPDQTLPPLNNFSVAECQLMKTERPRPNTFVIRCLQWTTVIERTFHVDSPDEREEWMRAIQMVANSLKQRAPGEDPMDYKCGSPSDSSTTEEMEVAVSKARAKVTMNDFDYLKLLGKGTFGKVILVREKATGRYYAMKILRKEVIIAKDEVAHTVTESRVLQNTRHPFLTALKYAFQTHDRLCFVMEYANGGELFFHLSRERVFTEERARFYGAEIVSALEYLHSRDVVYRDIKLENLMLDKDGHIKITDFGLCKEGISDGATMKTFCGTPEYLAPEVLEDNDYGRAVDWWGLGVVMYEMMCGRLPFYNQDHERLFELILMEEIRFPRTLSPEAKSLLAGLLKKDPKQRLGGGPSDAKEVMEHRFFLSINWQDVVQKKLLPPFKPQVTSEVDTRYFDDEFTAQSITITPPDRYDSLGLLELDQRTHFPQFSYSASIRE
T1 sequence (Q9Y243 whole entry, looked up): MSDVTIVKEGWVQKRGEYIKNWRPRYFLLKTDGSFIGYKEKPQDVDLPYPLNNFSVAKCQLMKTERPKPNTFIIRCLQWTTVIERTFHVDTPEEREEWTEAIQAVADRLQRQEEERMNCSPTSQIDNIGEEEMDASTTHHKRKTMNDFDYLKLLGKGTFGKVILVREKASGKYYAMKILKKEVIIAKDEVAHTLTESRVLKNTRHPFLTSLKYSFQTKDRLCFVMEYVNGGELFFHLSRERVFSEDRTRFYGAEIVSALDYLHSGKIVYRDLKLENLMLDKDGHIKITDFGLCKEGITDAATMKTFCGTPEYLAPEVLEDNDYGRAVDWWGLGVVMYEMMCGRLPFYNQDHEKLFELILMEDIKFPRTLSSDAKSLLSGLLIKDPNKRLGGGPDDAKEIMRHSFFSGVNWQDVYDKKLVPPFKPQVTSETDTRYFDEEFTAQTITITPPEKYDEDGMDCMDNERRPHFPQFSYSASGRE

Focal adhesion kinase 1 [3] = molecular target: T2, Focal adhesion kinase 1 (Homo sapiens, UniProt Q05397); conditions: U-87 MG, dose microM 0.1-5, time 48.0 hrs
Target sequence in this assay (Q05397 2-1052 limits assumed): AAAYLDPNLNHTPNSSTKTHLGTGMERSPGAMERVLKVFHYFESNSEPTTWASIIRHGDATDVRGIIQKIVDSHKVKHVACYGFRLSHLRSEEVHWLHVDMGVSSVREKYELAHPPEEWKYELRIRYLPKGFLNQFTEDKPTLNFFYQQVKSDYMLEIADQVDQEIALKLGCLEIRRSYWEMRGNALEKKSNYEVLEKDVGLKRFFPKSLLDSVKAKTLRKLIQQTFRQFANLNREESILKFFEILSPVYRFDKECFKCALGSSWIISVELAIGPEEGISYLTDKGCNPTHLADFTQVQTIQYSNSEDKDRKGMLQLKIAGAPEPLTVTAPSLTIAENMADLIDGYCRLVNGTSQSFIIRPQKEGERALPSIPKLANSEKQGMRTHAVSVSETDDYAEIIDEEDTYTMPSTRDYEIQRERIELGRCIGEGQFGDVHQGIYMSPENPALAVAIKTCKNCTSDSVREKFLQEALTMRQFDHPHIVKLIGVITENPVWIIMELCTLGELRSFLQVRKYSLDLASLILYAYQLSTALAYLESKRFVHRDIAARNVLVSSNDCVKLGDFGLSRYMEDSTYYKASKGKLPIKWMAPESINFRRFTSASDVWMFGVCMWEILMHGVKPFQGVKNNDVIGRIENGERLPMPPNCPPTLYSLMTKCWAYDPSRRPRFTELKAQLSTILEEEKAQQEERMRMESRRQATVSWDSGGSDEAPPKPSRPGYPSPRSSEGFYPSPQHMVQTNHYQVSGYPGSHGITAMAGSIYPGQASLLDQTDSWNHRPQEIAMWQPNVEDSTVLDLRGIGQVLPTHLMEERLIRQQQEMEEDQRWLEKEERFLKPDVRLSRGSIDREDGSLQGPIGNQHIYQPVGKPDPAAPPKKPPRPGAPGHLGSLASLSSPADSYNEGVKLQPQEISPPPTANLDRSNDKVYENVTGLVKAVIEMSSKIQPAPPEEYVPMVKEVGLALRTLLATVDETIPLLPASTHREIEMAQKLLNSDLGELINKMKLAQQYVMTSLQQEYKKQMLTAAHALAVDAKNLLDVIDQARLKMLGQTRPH

U-251 = experiment: Cytotoxicity against human U251 cells assessed as reduction in cell viability incubated for 48 hrs by MTT assay; conditions: U-251, 48 h
Focal adhesion kinase 1 [4] = molecular target: T2, Focal adhesion kinase 1; experiment: Covalent inhibition of recombinant human N-terminal His-tagged FAK (393 to 698 residues) expressed in baculovirus infected Sf9 insect cells using Poly (4:1 Glu, Tyr) as substrate preincubated for 2 to 60 mins followed by substrate addition and measured after 1 hr by ADP-glo luminescence assay
Focal adhesion kinase 1 [5] = molecular target: T2, Focal adhesion kinase 1; conditions: U-87 MG, dose microM 0.6-3, time 48.0 hrs
Target sequence in this assay (Q05397 2-1052 limits assumed): as above

U-87 MG [6] = experiment: Induction of cell cycle arrest in human U87MG cells assessed as increase in accumulation at G2 phase at 1 uM incubated for 48 hrs by propidium iodide staining based flow cytometry analysis; format: functional; conditions: U-87MG ATCC
[7] = molecular target: Protein-tyrosine kinase 2-beta (Homo sapiens) (UniProt Q14289); experiment: Inhibition of recombinant human full length PYK2 at 100 nM in presence of [gamma32P]-ATP by radiometric analysis relative to control
Sequence of Protein-tyrosine kinase 2-beta (Homo sapiens) (Q14289 whole entry, looked up): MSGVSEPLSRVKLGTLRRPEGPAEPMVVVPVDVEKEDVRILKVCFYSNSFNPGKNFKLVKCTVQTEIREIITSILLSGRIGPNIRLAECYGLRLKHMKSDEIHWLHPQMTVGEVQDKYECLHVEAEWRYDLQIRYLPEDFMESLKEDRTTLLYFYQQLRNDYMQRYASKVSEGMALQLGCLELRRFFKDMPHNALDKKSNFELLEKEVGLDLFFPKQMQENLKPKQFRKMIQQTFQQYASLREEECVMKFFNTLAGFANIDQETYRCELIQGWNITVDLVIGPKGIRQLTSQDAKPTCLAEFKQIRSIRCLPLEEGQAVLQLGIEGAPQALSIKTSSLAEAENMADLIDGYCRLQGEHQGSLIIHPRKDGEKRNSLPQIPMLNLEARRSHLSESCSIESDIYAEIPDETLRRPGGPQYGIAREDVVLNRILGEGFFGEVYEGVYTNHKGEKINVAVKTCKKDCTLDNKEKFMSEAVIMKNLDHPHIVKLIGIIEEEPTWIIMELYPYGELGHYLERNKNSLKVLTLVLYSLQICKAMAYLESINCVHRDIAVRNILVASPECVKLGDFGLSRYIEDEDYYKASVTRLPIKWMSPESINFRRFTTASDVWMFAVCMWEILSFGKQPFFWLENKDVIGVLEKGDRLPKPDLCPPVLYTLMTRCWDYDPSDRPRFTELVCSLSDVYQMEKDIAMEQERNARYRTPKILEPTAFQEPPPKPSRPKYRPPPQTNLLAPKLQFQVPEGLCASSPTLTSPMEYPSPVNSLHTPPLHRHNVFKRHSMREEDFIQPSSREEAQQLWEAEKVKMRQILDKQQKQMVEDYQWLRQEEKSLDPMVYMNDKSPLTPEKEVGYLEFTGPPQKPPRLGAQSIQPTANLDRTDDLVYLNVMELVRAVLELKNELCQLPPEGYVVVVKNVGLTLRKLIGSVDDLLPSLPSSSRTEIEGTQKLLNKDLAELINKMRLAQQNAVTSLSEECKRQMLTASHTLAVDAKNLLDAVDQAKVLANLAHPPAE

Focal adhesion kinase 1 [8] = molecular target: T2, Focal adhesion kinase 1; conditions: U-87 MG, dose microM 0.1-10, time 48.0 hrs
Target sequence in this assay (Q05397 2-1052 limits assumed): as the sequence (Q05397 2-1052 limits assumed) above

U-87 MG [9] = experiment: Induction of apoptosis in human U87MG cells assessed as early apoptotic cells at 10 uM incubated for 48 hrs by Annexin-V/propidium iodide staining based flow cytometric method (reference value: 4.55 %); format: functional, U-87MG ATCC
U-87 MG [10] = experiment: Induction of cell cycle arrest in human U87MG cells assessed as multi-nucleated giant cells at 1 uM incubated for 48 hrs by TO-PRO-3 dye based immunocytochemistry analysis; format: functional; conditions: U-87MG ATCC
U-87 MG [11] = experiment: Induction of apoptosis in human U87MG cells assessed as live cells at 10 uM incubated for 48 hrs by Annexin-V/propidium iodide staining based flow cytometric method (reference value: 94.2%); format: functional, U-87MG ATCC
[12] = molecular target: Epidermal growth factor receptor (Homo sapiens) (UniProt P00533); experiment: Inhibition of human recombinant EGFR at 100 nM in presence of [gamma33P]ATP by radiometric assay relative to control
[13] = molecular target: Mast/stem cell growth factor receptor Kit (Homo sapiens) (UniProt P10721); experiment: Inhibition of human recombinant c-kit at 100 nM in presence of [gamma33P]ATP by radiometric assay relative to control
[14] = molecular target: Proto-oncogene tyrosine-protein kinase Src (Homo sapiens) (UniProt P12931); experiment: Inhibition of human recombinant Src at 100 nM in presence of [gamma33P]ATP by radiometric assay relative to control
U-87 MG [15] = experiment: Activation of ERK in human U87MG cells at 0.1 to 10 uM incubated for 48 hrs by Western blot analysis; format: cell-based; conditions: dose microM 0.1-10, time 48.0 hrs
Focal adhesion kinase 1 [16] = molecular target: T2, Focal adhesion kinase 1; experiment: Inhibition of human recombinant FAK at 100 nM by [gamma32P]-ATP radiometric analysis relative to control
Target sequence in this assay (Q05397 2-1052 limits assumed): as above

Focal adhesion kinase 1 [17] = molecular target: T2, Focal adhesion kinase 1; conditions: U-87 MG, dose microM 0.1-10, time 48.0 hrs; remark: listed apart in the source
Target sequence in this assay (Q05397 2-1052 limits assumed): as above

Focal adhesion kinase 1 [18] = molecular target: T2, Focal adhesion kinase 1; conditions: U-87 MG, dose microM 0.1-10, time 48.0 hrs; remark: listed apart in the source
Target sequence in this assay (Q05397 2-1052 limits assumed): as above

U-87 MG [19] = experiment: Induction of cell cycle arrest in human U87MG cells assessed as accumulation at S phase at 1 uM incubated for 48 hrs by propidium iodide staining based flow cytometry analysis (reference value: 19.5 %); format: functional, U-87MG ATCC
Focal adhesion kinase 1 [20] = molecular target: T2, Focal adhesion kinase 1; experiment: Inhibition of recombinant human N-terminal His-tagged FAK (393 to 698 residues) expressed in baculovirus infected Sf9 insect cells using Poly (4:1 Glu, Tyr) as substrate measured after 1 hr by ADP-glo luminescence assay
[21] = molecular target: T1, Serine/threonine-protein kinase AKT (Homo sapiens); experiment: Activation of AKT in human U87MG cells at 0.1 to 10 uM incubated for 48 hrs by Western blot analysis; format: cell-based; conditions: U-87 MG, dose microM 0.1-10, time 48.0 hrs
Focal adhesion kinase 1 [22] = molecular target: T2, Focal adhesion kinase 1; conditions: U-87 MG, dose microM 0.1-5, time 48.0 hrs; remark: listed apart in the source
U-87 MG [23] = experiment: Cytotoxicity against human U-87 MG cells assessed as reduction in cell viability incubated for 48 hrs by MTT assay
[24] = molecular target: Fibroblast growth factor receptor 1 (Homo sapiens) (UniProt P11362); experiment: Inhibition of human recombinant FGFR1 (456 to 765 residues) at 100 nM in presence of [gamma33P]ATP by radiometric assay relative to control
A 172 = experiment: Cytotoxicity against human A172 cells assessed as reduction in cell viability incubated for 48 hrs by MTT assay; conditions: A 172, 48 h
U-87 MG [25] = experiment: Induction of apoptosis in human U87MG cells assessed as necrotic cells at 10 uM incubated for 48 hrs by Annexin-V/propidium iodide staining based flow cytometric method (reference value: […]); format: functional, U-87MG ATCC
[26] = molecular target: Insulin receptor (Homo sapiens) (UniProt P06213); experiment: Inhibition of human recombinant IR at 100 nM by [gamma-33ATP] radiometric analysis relative to control
Sequence of Insulin receptor (Homo sapiens) (P06213 28-758 limits assumed): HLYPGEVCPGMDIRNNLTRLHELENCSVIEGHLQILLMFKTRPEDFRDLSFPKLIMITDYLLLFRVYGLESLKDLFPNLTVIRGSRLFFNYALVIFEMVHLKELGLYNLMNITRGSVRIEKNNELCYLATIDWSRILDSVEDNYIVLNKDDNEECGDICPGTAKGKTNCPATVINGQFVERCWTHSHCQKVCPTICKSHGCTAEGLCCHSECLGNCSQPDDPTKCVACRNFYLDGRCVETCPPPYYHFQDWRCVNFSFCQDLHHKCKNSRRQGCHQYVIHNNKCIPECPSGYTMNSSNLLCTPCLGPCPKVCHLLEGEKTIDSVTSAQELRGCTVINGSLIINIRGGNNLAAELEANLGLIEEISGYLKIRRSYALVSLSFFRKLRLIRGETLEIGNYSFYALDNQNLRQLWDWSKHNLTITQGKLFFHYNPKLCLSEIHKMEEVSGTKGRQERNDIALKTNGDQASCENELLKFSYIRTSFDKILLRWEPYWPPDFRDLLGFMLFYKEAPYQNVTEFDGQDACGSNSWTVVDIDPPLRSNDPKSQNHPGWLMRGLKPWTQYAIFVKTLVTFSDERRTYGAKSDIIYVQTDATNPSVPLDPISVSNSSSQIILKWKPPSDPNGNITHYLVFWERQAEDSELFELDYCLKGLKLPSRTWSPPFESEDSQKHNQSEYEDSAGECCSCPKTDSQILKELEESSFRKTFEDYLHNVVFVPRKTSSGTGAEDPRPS
Sequence of Insulin receptor (Homo sapiens) (P06213 763-1382 limits assumed): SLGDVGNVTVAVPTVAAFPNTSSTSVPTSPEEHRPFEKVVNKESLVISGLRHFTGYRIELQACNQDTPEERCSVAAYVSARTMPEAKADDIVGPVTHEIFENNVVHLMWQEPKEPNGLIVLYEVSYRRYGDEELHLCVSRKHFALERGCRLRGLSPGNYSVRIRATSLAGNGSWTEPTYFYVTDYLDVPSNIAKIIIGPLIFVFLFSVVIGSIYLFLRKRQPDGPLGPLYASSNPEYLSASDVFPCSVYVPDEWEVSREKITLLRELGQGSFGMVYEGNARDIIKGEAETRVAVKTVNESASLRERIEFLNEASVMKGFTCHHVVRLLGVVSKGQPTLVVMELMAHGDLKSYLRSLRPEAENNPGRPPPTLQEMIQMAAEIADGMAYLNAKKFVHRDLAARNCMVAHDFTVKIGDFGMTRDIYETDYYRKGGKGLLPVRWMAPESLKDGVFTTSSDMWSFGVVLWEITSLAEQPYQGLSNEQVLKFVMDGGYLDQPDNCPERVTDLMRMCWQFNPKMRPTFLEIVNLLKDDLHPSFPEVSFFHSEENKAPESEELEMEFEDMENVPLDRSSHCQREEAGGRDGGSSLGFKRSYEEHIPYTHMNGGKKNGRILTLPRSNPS

[27] = molecular target: Insulin-like growth factor 1 receptor (Homo sapiens) (UniProt P08069); experiment: Inhibition of human recombinant IGF1R at 100 nM by [gamma-33ATP] radiometric assay relative to control
U-87 MG [28] = experiment: Induction of cellular senescence in human U87MG cells assessed as flat and enlarged cells at 1 uM incubated for 48 hrs by TO-PRO-3 dye based immunocytochemistry analysis; format: functional, cell-based; conditions: U-87MG ATCC
U-87 MG [29] = experiment: Inhibition of cell adhesion in human U87MG cells assessed as increase in appearance of stress fiber at 1 uM incubated for 48 hrs by FITC-conjugated phalloidin and TO-PRO3 staining based microscopic analysis; format: functional; conditions: U-87MG ATCC
U-87 MG [30] = experiment: Induction of apoptosis in human U87MG cells assessed as late apoptotic cells at 10 uM incubated for 48 hrs by Annexin-V/propidium iodide staining based flow cytometric method (reference value: […]); format: functional, U-87MG ATCC
U-87 MG [31] = experiment: Induction of cell cycle arrest in human U87MG cells assessed as accumulation at G0/G1 phase at 1 uM incubated for 48 hrs by propidium iodide staining based flow cytometry analysis (reference value: 51.6 +/- […]); format: functional, U-87MG ATCC
U-87 MG [32] = experiment: Inhibition of cell migration in human U87MG cells assessed as reduction of cell mobility at 0.2 to 1 uM measured at 24 to 48 hrs by scratch wound assay; format: functional, cell-based; conditions: U-87MG ATCC, dose microM 0.2-1, time hrs 24-48
U-87 MG [33] = experiment: Induction of cell cycle arrest in human U87MG cells assessed as accumulation in G2/M phase at 1 uM incubated for 48 hrs by propidium iodide staining based flow cytometry analysis (reference value: 28.9 +/- 2.1 %); format: functional, U-87MG ATCC; conditions: dose microM 1-10
Homo sapiens = species on record: Homo sapiens; experiment: Inhibition of human recombinant Erk at 100 nM measured in presence of [33P]-ATP by radiometric analysis relative to control

Row | Compound | inhibition [1] | inhibition [2] | inhibition (Focal adhesion kinase 1 [5]) | inhibition [7] | inhibition [12] | IC50 (U-251) | Activity (U-87 MG [6]) | Activity (U-87 MG [9]) | Activity (U-87 MG [10]) | Activity (U-87 MG [11]) | Activity (U-87 MG [19]) | IC50 (U-87 MG [23]) | IC50 (A 172) | Activity (U-87 MG [25]) | Activity (U-87 MG [28]) | inhibition (U-87 MG [29]) | Activity (U-87 MG [30]) | Activity (U-87 MG [31]) | inhibition (U-87 MG [32]) | Activity (U-87 MG [33]) | also measured
1 | CNC(=O)c1ccccc1Nc1nc(Nc2ccc(CNc3c(NCCNC(=O)/C(C#N)=C/C4CC4)c(=O)c3=O)cc2)ncc1Cl |  |  |  |  |  | 1200 nM | Active | 7.3% | Active | 87.3% | 8.8% | 7200 nM | 890 nM | 1.39% | Active | Active | 4.06% | 8.1% | Active | 83.1% | 
2 | CNC(=O)c1ccccc1Nc1nc(Nc2ccc(N3CCOCC3)cc2OC)ncc1Cl |  |  | Dose-dependent effect |  |  | 6300 nM | Active | 7.24% | Active | 88.1% | 19.5% | 2900 nM | 8300 nM | 2.2% | Active | Active | 2.45% | 16.2% | Active | 66.1% | inhibition (Focal adhesion kinase 1 [3]): Active; inhibition (Focal adhesion kinase 1 [8]): Dose-dependent effect; inhibition (Focal adhesion kinase 1 [17]): Dose-dependent effect; inhibition (Focal adhesion kinase 1 [18]): Dose-dependent effect
3 | C=CC(=O)NCCNc1c(NCc2ccc(Nc3ncc(Cl)c(NCc4cccnc4N(C)S(C)(=O)=O)n3)cc2)c(=O)c1=O | 12.5% | 2.5% |  | 68.3% | 1.2% |  |  |  |  |  |  |  |  |  |  |  |  |  |  |  | inhibition [13]: 0%; inhibition [14]: 17.9%; inhibition (Focal adhesion kinase 1 [16]): 92.2%; IC50 (Focal adhesion kinase 1 [20]): 5.5 nM; inhibition [24]: 32.5%; inhibition [26]: 15.1%; inhibition [27]: 28.1%; inhibition (Homo sapiens): 4.1%
4 | C=CC(=O)NCCNc1c(NCc2ccc(Nc3ncc(C(F)(F)F)c(Nc4ccccc4C(=O)NC)n3)cc2)c(=O)c1=O | 78.4% | 25.1% | Dose-dependent effect | 99.8% | 29% | 150 nM | Active | 5.6% | Active |  | 11.2% | 3300 nM | 130 nM | 1.1% | Active | Active | 3.85% | 13.7% | Active | 75.1% | Ki (Focal adhesion kinase 1 [4]): 2.64 nM; inhibition [13]: 0.1%; inhibition [14]: 55.6%; inhibition (Focal adhesion kinase 1 [16]): 98.6%; IC50 (Focal adhesion kinase 1 [20]): 6.8 nM; inhibition [24]: 88.3%; inhibition [26]: 82.5%; inhibition [27]: 94.4%; inhibition (Homo sapiens): 21.8%

The next lines start with results.

Row | inhibition [1] | inhibition [2] | inhibition (Focal adhesion kinase 1 [5]) | inhibition [7] | inhibition [12] | Compound | IC50 (U-251) | Activity (U-87 MG [6]) | Activity (U-87 MG [9]) | Activity (U-87 MG [10]) | Activity (U-87 MG [11]) | Activity (U-87 MG [19]) | IC50 (U-87 MG [23]) | IC50 (A 172) | Activity (U-87 MG [25]) | Activity (U-87 MG [28]) | inhibition (U-87 MG [29]) | Activity (U-87 MG [30]) | Activity (U-87 MG [31]) | inhibition (U-87 MG [32]) | Activity (U-87 MG [33]) | also measured
5 | 91% | 3.7% | Dose-dependent effect | 97.6% | 47.2% | C=CC(=O)NCCNc1c(NCc2ccc(Nc3ncc(Cl)c(Nc4ccccc4C(=O)NC)n3)cc2)c(=O)c1=O | 220 nM | Active | 6.05% | Active | 90.8% | 10% | 2200 nM | 650 nM | 0.67% | Active | Active | 2.45% | 9.2% | Active | 80.8% | inhibition (Focal adhesion kinase 1 [3]): inactive; Ki (Focal adhesion kinase 1 [4]): 0.23 nM; inhibition (Focal adhesion kinase 1 [8]): Dose-dependent effect; inhibition [13]: 0.2%; inhibition [14]: 52.1%; Activity (U-87 MG [15]): inactive; inhibition (Focal adhesion kinase 1 [16]): 98.1%; inhibition (Focal adhesion kinase 1 [17]): Dose-dependent effect; inhibition (Focal adhesion kinase 1 [18]): Dose-dependent effect; IC50 (Focal adhesion kinase 1 [20]): 0.6 nM; Activity [21]: inactive; inhibition (Focal adhesion kinase 1 [22]): Dose-dependent effect; inhibition [24]: 87.1%; inhibition [26]: 57.6%; inhibition [27]: 91.5%; inhibition (Homo sapiens): 14.2%
6 | 67.5% | 19.9% | Dose-dependent effect | 97.5% | 25.1% | CNC(=O)c1ccccc1Nc1nc(Nc2ccc(CNc3c(NCCNC(=O)/C(C#N)=C/C(C)C)c(=O)c3=O)cc2)ncc1Cl | 9800 nM | Active | 0% | Active | 96.4% | 8.2% | 7100 nM | 1300 nM | 3.37% | Active | Active | 0.21% | 12.7% | Active | 79.1% | inhibition (Focal adhesion kinase 1 [3]): inactive; Ki (Focal adhesion kinase 1 [4]): 0.47 nM; inhibition (Focal adhesion kinase 1 [8]): Dose-dependent effect; inhibition [13]: 0%; inhibition [14]: 31.1%; Activity (U-87 MG [15]): inactive; inhibition (Focal adhesion kinase 1 [16]): 94.1%; inhibition (Focal adhesion kinase 1 [17]): Dose-dependent effect; inhibition (Focal adhesion kinase 1 [18]): Dose-dependent effect; IC50 (Focal adhesion kinase 1 [20]): 1.2 nM; Activity [21]: inactive; inhibition (Focal adhesion kinase 1 [22]): Dose-dependent effect; inhibition [24]: 83.5%; inhibition [26]: 32.4%; inhibition [27]: 71.9%; inhibition (Homo sapiens): 4.3%
